Data on 4 compounds can be found in patent US9173836B2, “Pharmaceutical preparations for treatments of diseases and disorders of the breast” (FemmeParma Holding Company, Inc., priority 2003, dated 2015).

Data set [1] relates to women treated for cyclical mastalgia. As to conditions: in vivo; cited from earlier work.
A short description of another data set: in vitro. To be noted: for recovery at 48 h, 100 µM: % Recovery. How it is done: Dermatomed human abdominal skin was obtained from Asterand Inc. (Detroit, Mich.). The donor was a person. […] After thawing at room temperature, the skin was soaked in saline for 30 minutes, and then cut to the appropriate size (approximately 4 cm^2) necessary. Excess moisture and saline were wiped off. The tissue was immediately transferred to the Franz-cell diffusion chamber and clamped between the donor and receiver chambers. The exposed surface area of the Franz-cell diffusion chamber was 1.77 cm^2. The receiver compartment was filled with 8 mL KRB buffer. The reservoir also contained a stirring bar to mix the reservoir contents. […] The temperature was set to maintain the tissue surface at 32° C.
Samples (1.0 mL) were taken from the receiver compartment at 0, 2, 4, 8, 24, and 48 hours for formulation assays and the control assay. After taking samples, an equal volume of receiver KRB buffer was added back to replace the buffer removed. For the control assay, 200 μl of dosing solution (prior to 0 hours) was taken from the container and 200 μl of 0 and 48 hours samples were taken from the donor side of the chamber.
The liquid chromatography phase was carried out using a Keystone Hypersil BDC C12 30×2.0 mm i.d., 3 μm, with guard column and 25 mM ammonium formate buffer (pH 3.5), where Aqueous Reservoir (A) was 90% water, 10% buffer, and Organic Reservoir (B) was 90% acetonitrile, 10% buffer. A flow rate of 300 μL/minute was applied to a gradient program of 0.0 min: 100% A, 0% B; 1.5 min: 0% A, 100% B; 2.0 min: 0% A, 100% B; 2.1 min: 100% A, 0% B; 3.5 min: 100% A, 0% B; for a total run time of 3.5 minutes (Autosampler: 30 μL injection volume; Autosampler Wash: water/acetonitrile/2-propanol:1/1/1; with 0.2% formic acid). Mass spectroscopy was carried out using a PE SCIEX API 3000 (interface: turbo ionspray; mode: multiple reaction monitoring; method: 3.5 minute duration).
The following calculations were performed: Flux=d[(Cr×Vr)/A]/dt

The format of data set [2] is in vitro ADME. To be noted: 10 μg/ml, pH 7.4. On the procedure:
The concentration in the apparatus was determined after 0 and 180 minutes of incubation to mimic a skin permeation experiment. […] The experiment was done in triplicate.

For data set [3] the following is noted: Formulations 1 and 2.

Like-named read-outs stand apart in the source and are kept apart here. Marks after values point to notes of the source that are not given here.

For `CC(C)C[C@H]1C(=O)N2CCC[C@H]2[C@]2(O)O[C@](NC(=O)[C@@H]3C=C4c5cccc6[nH]c(Br)c(c56)C[C@H]4N(C)C3)(C(C)C)C(=O)N12` [Bromocriptine], in data set [1], the “Women complaining of more severe side effects” value is 10% and the “Women reporting mild side effects (nausea, dizziness, headaches, irritability)” value is listed as 30%.

`Cn1c(=O)c2c(ncn2C)n(C)c1=O` [Caffeine, caffeine]: in “in vitro” (100 μM), the “Dosing solution concentration, Mean ± S.D.” value was 108.7 ± 1.5 µM. The “Cumulative Receiver Concentration” value in the data set “in vitro” (female, human, 0 h, 100 μM) is recorded as 0* μM. The “Cumulative Receiver Concentration, Mean ± S.D.” value in the data set “in vitro” (female, human, 0 h, 100 μM) worked out at 0 ± 0 µM; in the data set “in vitro” (female, human, 2 h, 100 μM), 0.009 ± 0.015 µM; in “in vitro” (female, human, 4 h, 100 μM) it was 0.018 ± 0.030 µM; in “in vitro” (female, human, 8 h, 100 μM), 0.050 ± 0.075 µM; in “in vitro” (female, human, 24 h, 100 μM), 0.196 ± 0.254 µM; in the data set “in vitro” (female, human, 48 h, 100 μM), 0.390 ± 0.469 µM. The “Donor concentration, Mean ± S.D.” value in the data set “in vitro” (female, human, 0 h, 100 μM) amounted to 102.7 ± 0.6 µM; in “in vitro” (female, human, 48 h, 100 μM), 102.4 ± 11.2 µM. Further, the recovery at 48 h, 100 µM is 104% in the data set “in vitro” (female, human) and 95.6 ± 8.7% in the data set “in vitro” (female, human, Mean ± S.D.).

For `C#C[C@]1(O)CC[C@H]2[C@@H]3CCC4=Cc5oncc5C[C@]4(C)[C@H]3CC[C@@]21C` [Danazol, danazol], the entries for the “Average Measured Concentration ± STD (N = 3)” value in data set [2] (0 min) and in data set [2] (180 min) were 8.9 ± 0.3 µg/mL and 8.5 ± 0.3 µg/mL, respectively.

As usually defined, the Papp is the rate of passage across a membrane or cell layer, normalised by area and donor concentration. Lower therefore signals poor permeation. Regarding lucifer yellow, in “in vitro”, the “% Recovery, Mean ± S.D.” value was determined as 85.3 ± 5.4%; the apparent permeability (Papp) is 0 ×10⁻⁶ cm/s; the “Papp, Mean ± S.D.” value is 0 ± 0 ×10^−6 cm/s; the “Tissue integrity marker in receiver buffer” value was “below lower limit of quantification (LLOQ) in all receiver buffer”. The “Lucifer yellow permeation (membrane integrity)” value in data set [3] is recorded as “no permeation of Lucifer yellow detectable until after 8 or 24 hours of incubation”.
